Data set [1] in a line: Toxicokinetics of LUM001 free form, 13-week oral gavage toxicity study in rats. It is filed as in vivo. As to conditions: plasma; rat, after IV administration of 3 mg/kg; read-out: AUC(0-24 h).
Data set [2] is described as follows: Systemic exposure of LUM001 in patients under 18 years (study NB-00-02-014). It is filed as in vivo, human. The conditions noted are these: QD, day eight. Here is the method: LUM001 has been administered to forty patients under the age of 18 years old. […] The drug was administered once-a-day (QD) in the morning for fourteen days. […] These doses are similar to those using to treat patients with PSC-IBD or PSC.

Turning to `CCCCC1(CCCC)CS(=O)(=O)c2ccc(N(C)C)cc2[C@@H](c2ccc(OCc3ccc(C[N+]45CCN(CC4)CC5)cc3)cc2)[C@H]1O` [LUM001], in data set [1], the AUC(0-t) is 4320 ng·h/mL. Moreover, the systemic exposure result in data set [2] is listed as “minimally absorbed”.

For the origin of these results see US20140275090A1, “BILE ACID RECYCLING INHIBITORS FOR TREATMENT OF PRIMARY SCLEROSING CHOLANGITIS AND INFLAMMATORY BOWEL DISEASE” (Lumena Pharmaceuticals, Inc., priority 2013, published 2014).
